Reference: US20230203043A1, “NOVEL IMIDAZOPYRAZINE DERIVATIVES” (Hoffmann-La Roche Inc., priority 2020, published 2023)
Counter-ions that a name gives are not always drawn.

test system: Acinetobacter baumannii ATCC17961; assay: Antimicrobial susceptibility testing: 90% growth inhibitory concentration (IC90) determination in Iso-Sensitest broth, OD600 growth; type: cell-based; conditions: Acinetobacter baumannii, ATCC17961, 16 h, read-out: A. baumannii ATCC 17961 IC90 (uM), strain ATCC 17961, OD600 growth over 16 h
Method in brief: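 Serial twofold dilution, 10 points, e.g. 50–0.097 μM final; ~5×10^(5) CFU/ml; 35±2° C, 16 h; kinetic OD600 every 20 min; IC90 from log-phase inhibition.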

Row | SMILES | IC90
1 | N[C@H]1CC[C@H](C(=O)N2CCN(C(=O)c3ccc(Nc4nccn5c(-c6c[nH]nc6C(F)(F)F)cnc45)cc3Cl)CC2)C1 [Example 575, (4-((1S,3S)-3-aminocyclopentane-1-carbonyl)piperazin-1-yl)(2-chloro-4-((3-(3-(trifluoromethyl)-1H-pyrazol-4-yl)imidazo[1,2-a]pyrazin-8-yl)amino)phenyl)methanone formate] | 0.175 µM
2 | O=C(CC1CCNCC1)N1CCN(C(=O)c2ccc(Nc3nccn4c(-c5cn(CC(F)F)nc5C(F)(F)F)cnc34)cc2Cl)CC1 [Example 578, 1-(4-(2-chloro-4-((3-(1-(2,2-difluoroethyl)-3-(trifluoromethyl)-1H-pyrazol-4-yl)imidazo[1,2-a]pyrazin-8-yl)amino)benzoyl)piperazin-1-yl)-2-(piperidin-4-yl) ethan-1-one formate] | 0.394 µM
3 | N#CCn1cc(-c2cnc3c(Nc4ccc(C(=O)N5CCN(C(=O)NCC6(O)CNC6)CC5)c(Cl)c4)nccn23)c(C(F)(F)F)n1 [Example 579, 4-(2-chloro-4-((3-(1-(cyanomethyl)-3-(trifluoromethyl)-1H-pyrazol-4-yl)imidazo[1,2-a]pyrazin-8-yl)amino)benzoyl)-N-((3-hydroxyazetidin-3-yl)methyl)piperazine-1-carboxamide formate] | 0.538 µM
4 | O=C(NCC1(O)CNC1)N1CCN(C(=O)c2ccc(Nc3nccn4c(-c5cn(CC(F)F)nc5C(F)(F)F)cnc34)cc2Cl)CC1 [Example 580, 4-(2-chloro-4-((3-(1-(2,2-difluoroethyl)-3-(trifluoromethyl)-1H-pyrazol-4-yl)imidazo[1,2-a]pyrazin-8-yl)amino)benzoyl)-N-((3-hydroxyazetidin-3-yl)methyl)piperazine-1-carboxamide formate] | 0.322 µM
5 | N#CCn1cc(-c2cnc3c(Nc4ccc(C(=O)N5CCN(C(=O)[C@H]6CC[C@H](N)C6)CC5)c(Cl)c4)nccn23)c(C(F)(F)F)n1 [Example 582, 2-(4-(8-((4-(4-((1S,3S)-3-aminocyclopentane-1-carbonyl)piperazine-1-carbonyl)-3-chlorophenyl)amino)imidazo[1,2-a]pyrazin-3-yl)-3-(trifluoromethyl)-1H-pyrazol-1-yl) acetonitrile formate] | 0.232 µM
6 | N[C@H]1CC[C@H](C(=O)N2CCN(C(=O)c3ccc(Nc4nccn5c(-c6cn(CC(F)F)nc6C(F)(F)F)cnc45)cc3Cl)CC2)C1 [Example 583, (4-((1S,3S)-3-aminocyclopentane-1-carbonyl)piperazin-1-yl) (2-chloro-4-((3-(1-(2,2-difluoroethyl)-3-(trifluoromethyl)-1H-pyrazol-4-yl)imidazo[1,2-a]pyrazin-8-yl)amino)phenyl) methanone formate] | 0.347 µM
7 | CCc1cc(Nc2nccn3c(-c4c[nH]nc4C(F)(F)F)cnc23)ccc1C(=O)NCCNC(=O)[C@@H]1CC[C@@H](N)C1 [Example 586, N-[2-[[(1R,3R)-3-aminocyclo-pentanecarbonyl]amino]ethyl]-2-ethyl-4-[[3-[3-(trifluoromethyl)-1H-pyrazol-4-yl]imidazo[1,2-a]pyrazin-8-yl]amino]benzamide formate] | 0.434 µM
8 | CCc1cc(Nc2nccn3c(-c4cn(CC#N)nc4C(F)(F)F)cnc23)ccc1C(=O)NCCNC(=O)[C@@H]1CC[C@@H](N)C1 [Example 587, N-(2-((1R,3R)-3-aminocyclopentane-1-carboxamido)ethyl)-4-((3-(1-(cyanomethyl)-3-(trifluoromethyl)-1H-pyrazol-4-yl)imidazo[1,2-a]pyrazin-8-yl)amino)-2-ethylbenzamide formate] | 0.221 µM
9 | CCc1cc(Nc2nccn3c(-c4c[nH]nc4C(F)(F)F)cnc23)ccc1C(=O)NCCNC(=O)[C@H]1CC[C@H](N)C1 [Example 588, N-(2-((1S,3S)-3-aminocyclopentane-1-carboxamido)ethyl)-2-ethyl-4-((3-(3-(trifluoromethyl)-1H-pyrazol-4-yl)imidazo[1,2-a]pyrazin-8-yl)amino)benzamide formate] | 0.46 µM
10 | CNC(=O)c1ccc(Nc2nccn3c(-c4cn(CCN(C)C)nc4C(F)(F)F)cnc23)cc1Cl [Example 591, 2-chloro-4-((3-(1-(2-(dimethylamino)ethyl)-3-(trifluoromethyl)-1H-pyrazol-4-yl)imidazo[1,2-a]pyrazin-8-yl)amino)-N-methylbenzamide formate] | 0.483 µM
11 | CNC(=O)c1ccc(Nc2nccn3c(-c4cn(C5CCN(Cc6ccccc6)CC5)nc4C(F)(F)F)cnc23)cc1Cl [Example 592, 4-((3-(1-(1-benzylpiperidin-4-yl)-3-(trifluoromethyl)-1H-pyrazol-4-yl)imidazo[1,2-a]pyrazin-8-yl)amino)-2-chloro-N-methylbenzamide formate] | 0.402 µM
12 | CNC(=O)c1ccc(Nc2nccn3c(-c4cn(CC5CCN(Cc6ccccc6)C5)nc4C(F)(F)F)cnc23)cc1Cl (stereo not drawn) [Example 593, 4-((3-(1-((1-benzylpyrrolidin-3-yl)methyl)-3-(trifluoromethyl)-1H-pyrazol-4-yl)imidazo [1,2-a]pyrazin-8-yl)amino)-2-chloro-N-methylbenzamide formate] | 0.234 µM
13 | CNC(=O)c1ccc(Nc2nccn3c(-c4cn(CCCc5ccc(CN)cc5)nc4C(F)(F)F)cnc23)cc1Cl [Example 594, 4-((3-(1-(3-(4-(aminomethyl)phenyl)propyl)-3-(trifluoromethyl)-1H-pyrazol-4-yl)imidazo[1,2-a]pyrazin-8-yl)amino)-2-chloro-N-methylbenzamide formate] | 0.164 µM
14 | CNC(=O)c1ccc(Nc2nccn3c(-c4cn(Cc5cccc(CCN)c5)nc4C(F)(F)F)cnc23)cc1Cl [Example 595, 4-((3-(1-(3-(2-aminoethyl)benzyl)-3-(trifluoromethyl)-1H-pyrazol-4-yl)imidazo[1,2-a]pyrazin-8-yl)amino)-2-chloro-N-methylbenzamide formate] | 0.186 µM
15 | NCCNC(=O)CN1CCN(C(=O)c2ccc(Nc3nccn4c(-c5cn(CC(F)F)nc5C(F)(F)F)cnc34)cc2Cl)CC1 [Example 598, N-(2-aminoethyl)-2-(4-(2-chloro-4-((3-(1-(2,2-difluoroethyl)-3-(trifluoromethyl)-1H-pyrazol-4-yl)imidazo[1,2-a]pyrazin-8-yl)amino)benzoyl)piperazin-1-yl)acetamide formate] | 0.359 µM

same assay, conditions: Acinetobacter baumannii, ATCC17961, 16 h, strain ATCC 17961, OD600 growth over 16 h, read-out: A. baumannii ATCC 17961 IC90

Row | IC90 | SMILES
16 | 0.9 µM | CCc1cc(Nc2nccn3c(-c4c[nH]nc4C(F)(F)F)cnc23)ccc1C(=O)NCCNC(=O)N1CC[C@H](N)C1 [Example 576, (S)-3-amino-N-(2-(2-ethyl-4-((3-(3-(trifluoromethyl)-1H-pyrazol-4-yl)imidazo[1,2-a]pyrazin-8-yl)amino)benzamido)ethyl) pyrrolidine-1-carboxamide formate]
17 | 0.395 µM | CCc1cc(Nc2nccn3c(-c4cn(CC#N)nc4C(F)(F)F)cnc23)ccc1C(=O)NCCNC(=O)N1CC[C@H](N)C1 [Example 577, (S)-3-amino-N-(2-(4-((3-(1-(cyanomethyl)-3-(trifluoromethyl)-1H-pyrazol-4-yl)imidazo[1,2-a]pyrazin-8-yl)amino)-2-ethylbenzamido)ethyl) pyrrolidine-1-carboxamide formate]
18 | 0.354 µM | O=C(NC1CNC1)N1CCN(C(=O)c2ccc(Nc3nccn4c(-c5cn(CC(F)F)nc5C(F)(F)F)cnc34)cc2Cl)CC1 [Example 581, N-(azetidin-3-yl)-4-(2-chloro-4-((3-(1-(2,2-difluoroethyl)-3-(trifluoromethyl)-1H-pyrazol-4-yl)imidazo[1,2-a]pyrazin-8-yl)amino)benzoyl) piperazine-1-carboxamide formate]
19 | 0.257 µM | N#CCn1cc(-c2cnc3c(Nc4ccc(C(=O)N5CCN(C(=O)N[C@H]6C[C@@H](N)C6)CC5)c(Cl)c4)nccn23)c(C(F)(F)F)n1 [Example 584, N-((1s,3s)-3-aminocyclobutyl)-4-(2-chloro-4-((3-(1-(cyanomethyl)-3-(trifluoromethyl)-1H-pyrazol-4-yl)imidazo[1,2-a]pyrazin-8-yl)amino)benzoyl) piperazine-1-carboxamide formate]
20 | 0.325 µM | N[C@H]1C[C@@H](NC(=O)N2CCN(C(=O)c3ccc(Nc4nccn5c(-c6cn(CC(F)F)nc6C(F)(F)F)cnc45)cc3Cl)CC2)C1 [Example 585, N-((1s,3s)-3-aminocyclobutyl)-4-(2-chloro-4-((3-(1-(2,2-difluoroethyl)-3-(trifluoromethyl)-1H-pyrazol-4-yl)imidazo[1,2-a]pyrazin-8-yl)amino)benzoyl) piperazine-1-carboxamide formate]
21 | 0.84 µM | CCc1cc(Nc2nccn3c(-c4cn(Cc5ccn(CC#N)n5)nc4C(F)(F)F)cnc23)ccc1C(=O)NC [Example 589, 4-((3-(1-((1-(cyanomethyl)-1H-pyrazol-3-yl)methyl)-3-(trifluoromethyl)-1H-pyrazol-4-yl)imidazo[1,2-a]pyrazin-8-yl)amino)-2-ethyl-N-methylbenzamide]
22 | 0.375 µM | CNC(=O)c1ccc(Nc2nccn3c(-c4cn(Cc5ccn(CC#N)n5)nc4C(F)(F)F)cnc23)cc1Cl [Example 590, 2-chloro-4-((3-(1-((1-(cyanomethyl)-1H-pyrazol-3-yl)methyl)-3-(trifluoromethyl)-1H-pyrazol-4-yl)imidazo [1,2-a]pyrazin-8-yl)amino)-N-methylbenzamide]
23 | 0.131 µM | Cc1cc(Nc2nccn3c(-c4cn(CC5CC5)nc4C(F)(F)F)cnc23)ccc1S(C)(=O)=NCCCN (stereo not drawn) [Example 596, N-[4-[N-(3-aminopropyl)-S-methyl-sulfonimidoyl]-3-methyl-phenyl]-3-[1-(cyclopropylmethyl)-3-(trifluoromethyl)pyrazol-4-yl]imidazo[1,2-α]pyrazin-8-amine formate]
24 | 0.179 µM | Cc1cc(Nc2nccn3c(-c4cn(CC#N)nc4C(F)(F)F)cnc23)ccc1S(C)(=O)=NCCCN (stereo not drawn) [Example 597, 2-[4-[8-[4-[N-(3-aminopropyl)-S-methyl-sulfonimidoyl]-3-methyl-anilino]imidazo[1,2-a]pyrazin-3-yl]-3-(trifluoromethyl)pyrazol-1-yl]acetonitrile]
